The values that follow come from patent publication US7914827B2, “Use of extracts or extractants of the guajacum types, said extracts or extractants bringing about phosphodiesterase-4 inhibition and method for producing the same” (Max Zeller Soehne AG, priority 2006, dated 2011).

Each structure is given as a SMILES string.

This experiment has as its target human phosphodiesterase-5 (PDE5) (Homo sapiens, UniProt O76074). Put plainly: PDE5 assay (3H-cGMP as tracer). It counts as biochemical. To be noted: read-out: Inhibitory activity [%], PDE5.

Take `CCCc1nn(C)c2c(=O)[nH]c(-c3cc(S(=O)(=O)N4CCN(C)CC4)ccc3OCC)nc12` [Sildenafil]: the inhibition at 1 pM turned out to be 5%, the inhibition at 0.0001 µM stood at 21%, the inhibition at 0.01 µM was 52% and the inhibition at 1 µM was determined as 74%.
